We go through 5 molecules from patent US5292757A, “1,4-dihydropyridine compounds useful as reverse resistance agents” (Ajinomoto Company, Inc., priority 1991, dated 1994).

One assay deals with colon 26 cells. Briefly: Regression of tumor in colon 26 bearing mice in combination with adriamycin. The format is in vivo, mouse (CDF1). Particulars: for reducing tumor weight: in combination with adriamycin. The procedure:
20 mg of colon 26 cells were transplanted subcutaneously to CDF1 mice (6 weeks old, female) on day 0. On day 6 the diameter of the tumor was measured and groups of 5 mice were selected having equal average tumor size. On day 7 and 14, 10 mg/kg of adriamycin was injected i.v. and the tested compounds were administered p.o. at 0, 8, 24, 32 hours after the injection of adriamycin. Adriamycin was dissolved in saline to a concentration of 2 mg/ml and the compounds in Example 61 and 62 were dissolved in saline to a concentration of 50 mg/ml. The diameter of the tumor was measured each week and tumor weight was estimated as follows: [formula] (L:long diameter, S:short diameter, mm)

Assay [1] relates to Vincristine-resistant mouse P388 leukemia cells. Nature of the assay: Test of effect on overcoming anti-cancer drug resistance (growth inhibition by vincristine, MTT method). The format is cell-based. On the procedure: Vincristine-resistant mouse P388 leukemia cells were used as an example of resistant cancer cells. RPMI-1640 medium containing 5 μM of 2-mercaptoethanol and 10% fetal calf serum was used for incubation.
The cells were inoculated on a 96-well microplate in 1×10^4 /50 μl/well and 25 μl each of vincristine solution having a specific concentration and an aqeous solution of the test compound (4 μg/ml) was added thereto. After culturing at 37° C. for 2 days, the viable cells were counted by the MTT method and a dose-response curve of vincristine was prepared. Based on the curve, the concentration (IC50) of vincristine producing a 50% inhibition of growth was determined.
A general note: Formazan colour is commonly taken as a measure of viable cells.

Where [2] appears, read: compound dose 250 mg p.o. with adriamycin 10 mg/kg i.v., hydrochloride.
The mark [3] stands for this setting: compound dose 500 mg p.o. with adriamycin 10 mg/kg i.v., hydrochloride.

What is called IC50 is the concentration that gives 50% inhibition.

In brackets after ≈: the same amount, converted by molar mass. Structures can show the parent of a compound that is named as a salt.

Turning to `COC(=O)C1=C(C)N(CCCc2ccccc2)C(C)=C(C(=O)OCCCc2cccnc2)C1c1ccc(OC)c(OC)c1` (single isomer, unassigned; (+)) [Example 61, (+)-1,4-dihydro-4-(3,4-dimethoxyphenyl)-2,6-dimethyl-1-(3-phenylpropyl)-3,5-pyridinedicarboxylic acid 3-methyl-5-[3-(3-pyridyl)propyl] ester hydrochloride], the tumor weight with colon 26 cells (setting [2]) is 2.2 g; in the assay on colon 26 cells (setting [3]), 2 g. Besides, in the assay with colon 26 cells, the reducing tumor weight entry is “effective in reducing tumor weight in combination with adriamycin”. On the same counts, the results for `COC(=O)C1=C(C)N(CCCc2ccccc2)C(C)=C(C(=O)OCCCc2cccnc2)C1c1ccc(OC)c(OC)c1` (single isomer, unassigned; (-)) [Example 62, (-)-1,4-dihydro-4-(3,4-dimethoxyphenyl)-2,6-dimethyl-1-(3-phenylpropyl-3,5-pyridinedicarboxylic acid 3-methyl-5-[3-(3-pyridyl)propyl]ester hydrochloride] are 1.8 g, 1.1 g and “effective in reducing tumor weight in combination with adriamycin”. As to `COc1cccc2c1C(=O)c1c(O)c3c(c(O)c1C2=O)C[C@@](O)(C(=O)CO)C[C@@H]3O[C@H]1C[C@H](N)[C@H](O)[C@H](C)O1` [Adriamycin, reference compound], the tumor weight with colon 26 cells (adriamycin 10 mg/kg i.v. alone, no test compound (untreated 4.5 g)) is 2.7 g. `COC(=O)C1=C(C)N(CCCc2ccccc2)C(C)=C(C(=O)OCCCN2CCN(CC(C)C)CC2)C1c1ccc(OC)c(OC)c1` (stereo not drawn) [Example 3, 1,4-dihydro-4-(3,4-dimethoxyphenyl)-2,6-dimethyl-1-(3-phenylpropyl)-3,5-pyridinedicarboxylic acid 3-methyl-5-[3-(4-isobutylpiperazino)propyl]ester]: the “IC50 (concentration of vincristine producing a 50% inhibition of growth in the presence of the compound)” value in assay [1] (vincristine IC50, test compound present at 1 μg/ml, 37° C., 2 days, MTT) turned out to be 0.0015 mg/L. `CC[C@]1(O)C[C@H]2CN(CCc3c([nH]c4ccccc34)[C@@](C(=O)OC)(c3cc4c(cc3OC)N(C=O)[C@H]3[C@@](O)(C(=O)OC)[C@H](OC(C)=O)[C@]5(CC)C=CCN6CC[C@]43[C@@H]65)C2)C1` [vincristine, reference compound]: in assay [1] (Mus musculus, P388, 48 h, read-out: IC50 of vincristine alone), the IC50 was 0.05 to 0.1 mg/L (≈ 0.0606 to 0.121 µM).
